From article PMC6576746, “Rational discovery of dual-indication multi-target PDE/Kinase inhibitor for precision anti-cancer therapy using structural systems pharmacology” (PLoS Computational Biology, 2019)

How the values were obtained:
Experiment in all cases: cells
Set-up in all cases: species or system panel of human cancer cell lines; Eurofins OncoPanel proliferation; nuclei count by high-content fluorescence imaging, 10-point dose response
ARH-77 = conditions: Homo sapiens, ARH-77, 72 h, cell count, 3 days
Method: (§1) OncoPanel cancer cell proliferation assay was performed by Eurofins Panlabs, Inc. (Missouri, USA). Cancer cells were grown in RPMI 1640, 10% FBS, 2 mM L-alanyl-L-glutamine, 1 mM Na pyruvate, or a special medium. Cells were seeded into 384-well plates and incubated in a humidified atmosphere of 5% CO2 at 37°C. Compounds were added the day following cell seeding. At the same time, a time zero untreated cell plate was generated. After a 3-day incubation period, cells were fixed and stained to allow fluorescence imaging of nuclei. Levosimendan was serially diluted in half-log steps from 100 μM and assayed over 10 concentrations with a maximum assay concentration of 0.1% DMSO. Automated fluorescence microscopy was carried out using a Molecular Devices ImageXpress Micro XL high-content imager, and images were collected with a 4X objective. 16-bit TIFF images were acquired and analyzed with MetaXpress 5.1.0.41 software. Cell count EC50 is the test concentration at the curve inflection point (parameter C), or half the effective response. IC50 is the test compound concentration at 50% of the maximum possible response. GI50 is the concentration needed to reduce the observed growth by half (midway between the relative cell count at the curve maximum and at the time of compound addition). Activity area is an estimate of the integrated area above the response curve. Activity area values range from 0–10, where a value of zero indicates no inhibition of proliferation at all concentrations, and a value of 10 indicates complete inhibition of proliferation at all concentrations.

BCP-1 = conditions: BCP-1, 72 h, cell count, 3 days
Method: as §1

HEC-1-A = conditions: Homo sapiens, HEC-1-A, 72 h, cell count, 3 days
Method: as §1

C-33A = conditions: Homo sapiens, C-33-A, 72 h, cell count, 3 days
Method: as §1

A101D = conditions: Homo sapiens, A101D, 72 h, cell count, 3 days
Method: as §1

DOHH-2 = conditions: Homo sapiens, DOHH-2, 72 h, cell count, 3 days
Method: as §1

PANC-1 = conditions: Homo sapiens, PANC-1, 72 h, cell count, 3 days
Method: as §1

DMS114 = conditions: Homo sapiens, DMS-114, 72 h, cell count, 3 days
Method: as §1

NCIH441 = conditions: Homo sapiens, NCI-H441, 72 h, cell count, 3 days
Method: as §1

RS4;11 = conditions: Homo sapiens, RS4-11, 72 h, cell count, 3 days
Method: as §1

OVCAR3 = conditions: Homo sapiens, OVCAR-3, 72 h, cell count, 3 days
Method: as §1

A427 = conditions: Homo sapiens, A-427, 72 h, cell count, 3 days
Method: as §1

ST486 = conditions: Homo sapiens, ST486, 72 h, cell count, 3 days
Method: as §1

JEG-3 = conditions: Homo sapiens, JEG-3, 72 h, cell count, 3 days
Method: as §1

[1] = 50% of maximum possible response

C[C@@H]1CC(=O)NN=C1c1ccc(NN=C(C#N)C#N)cc1 [levosimendan]
IC50 (ARH-77; [1]): 20.3 µM | GI50 (ARH-77; corrected for time zero): 16 µM | EC50 (ARH-77; curve inflection point): 19.3 µM | IC50 (BCP-1; [1]): 12.6 µM | GI50 (BCP-1; corrected for time zero): 8.13 µM | EC50 (BCP-1; curve inflection point): 12.6 µM | IC50 (HEC-1-A; [1]): 34.3 µM | GI50 (HEC-1-A; corrected for time zero): 28.2 µM | EC50 (HEC-1-A; curve inflection point): 34.3 µM | IC50 (C-33A; [1]): 14.5 µM | GI50 (C-33A; corrected for time zero): 10.7 µM | EC50 (C-33A; curve inflection point): 14.5 µM | IC50 (A101D; [1]): 34.8 µM | GI50 (A101D; corrected for time zero): 26.6 µM | EC50 (A101D; curve inflection point): 34.8 µM | IC50 (DOHH-2; [1]): 15.8 µM | GI50 (DOHH-2; corrected for time zero): 14.4 µM | EC50 (DOHH-2; curve inflection point): 15.8 µM | IC50 (PANC-1; [1]): 80.9 µM | GI50 (PANC-1; corrected for time zero): 47 µM | EC50 (PANC-1; curve inflection point): 80.9 µM | IC50 (DMS114; [1]): 50.7 µM | GI50 (DMS114; corrected for time zero): 18.9 µM | EC50 (DMS114; curve inflection point): 50.7 µM | IC50 (NCIH441; [1]): > 100 µM | GI50 (NCIH441; corrected for time zero): 31.9 µM | EC50 (NCIH441; curve inflection point): > 100 µM | IC50 (RS4;11; [1]): 29.7 µM | GI50 (RS4;11; corrected for time zero): 19.6 µM | EC50 (RS4;11; curve inflection point): 25.4 µM | IC50 (OVCAR3; [1]): 42.6 µM | GI50 (OVCAR3; corrected for time zero): 24.1 µM | EC50 (OVCAR3; curve inflection point): 42.6 µM | IC50 (A427; [1]): 23.6 µM | GI50 (A427; corrected for time zero): 18.4 µM | EC50 (A427; curve inflection point): 23.6 µM | IC50 (ST486; [1]): 8.16 µM | GI50 (ST486; corrected for time zero): 6.04 µM | EC50 (ST486; curve inflection point): 8.16 µM | IC50 (JEG-3; [1]): 30.5 µM | GI50 (JEG-3; corrected for time zero): 25.6 µM | EC50 (JEG-3; curve inflection point): 30.5 µM
